Measured values taken from patent US9815883B2, “Inhibiting peptides derived from TREM-like transcript 1 (TLT-1) and uses thereof” (Institut National de la Sante et de la Recherche Medicale …, priority 2010, dated 2017).

Experiments:
[1] = test system: TREM-1; test: CARD9-MALT1-BCL10 complex formation (immunoprecipitation) in neutrophils; format: cell-based, human; details: peptide 30 μg/mL
Method: (B) CARD9-MALT1-BCL10 complex formation: Immunoblot of MALT-1 after immunoprecipitation with anti-BCL10 mAb of lysates of neutrophils stimulated for 20 minutes.
(B) […] complex formation: Immunoblot of MALT-1 after immunoprecipitation with anti-BCL10 mAb of lysates of neutrophils stimulated for 20 minutes.
Cells were lysed with CytoBuster Protein Extraction Reagent (Novagen). Samples were normalized by total protein concentration and lysates were pre-cleared before performing Immunoprecipitation. Pre-cleared lysates were then incubated overnight at 4° C. with rabbit-anti-Bcl10 mAb (Cell Signaling) or rabbit-anti-CARD9 (Antibodies Online). Thereafter, anti-rabbit-Ig beads (eBioscience) were added for 1 hour at room temperature. Beads were then washed 3 times, denatured in Laemli buffer 5 minutes at 95° C. and centrifuged at 16,000 g for 1 min.

[2] = test system: TREM-1 ligand (agonist); test: Immunoblot revealed by mouse anti-TREM-1 mAb (TREM-1 agonist); format: binding; details: FIG. 1A
Excerpt: To determine whether sTLT-1 may specifically bind to the TREM-1 ligand and thus interfere with the TREM-1/TREM-1 ligand interaction, we used a specific TREM-1 agonist known to bind and activate TREM-1, mimicking TREM-1 engagement by its ligand.

[3] = test system: Trem-1 silenced human monocytes; test: TNF-α production by Trem-1 silenced monocytes; format: cell-based; details: Trem-1 siRNA; LPS/anti-TREM-1 mAb
Method: (I) ELISA of TNF-α produced by native or Trem-1 silenced human monocytes.
TREM-1 silencing was performed with Human Monocyte Nucleofector Kit (Amaxa) using siRNA sequences obtained from Qiagen. Isolated monocytes were electroporated with siRNA (without siRNA and with siRNA without electroporation as negative control, and with a GFP-reporter plasmid for positive control) and cultured for 24 hours in Human Monocyte Nucleofector Medium (Amaxa) before stimulation. TREM-1 expression was then assessed by quantitative RT-PCR and flow cytometry 24 hours after transfection. Medium was changed and monocytes were stimulated with LPS, anti-TREM-1 mAb and TLT-1-peptides for 24 hours. Therefore, medium was collected for cytokine measurement.

[4] = test system: male Balb/c mice; test: Caecal ligation and puncture (CLP) polymicrobial sepsis model; format: in vivo, mouse
Method: Adult male Balb/c mice (20-23 g) were subjected to caecal ligation and puncture under isoflurane anaesthesia and were randomly grouped (n=5-10 per group) to receive a single LR17 (100 μg in 0.2 mL NaCl 0.9%), scrambled-LR17 ([…] in 0.2 mL NaCl 0.9%), or 0.2 mL NaCl 0.9% i.p. injection. After 24 hours, animals were killed under anaesthesia. Results are mean±SD. p values are *p<0.05, **p<0.01, ***p<0.001 compared with control animals.
(A-B) Adult male Balb/c mice (20-23 g) were subjected to caecal ligation and puncture under isoflurane anaesthesia and were randomly grouped (n=25-40 per group) to receive a LR17, scrambled-LR17, or 0.2 mL NaCl 0.9% i.p. injection at indicated times. Survival was monitored over 1 wk and analyzed by Log Rank test.
Male Balb/c mice (4-6 weeks) were anesthetized with isoflurane. The cecum was exposed through a 1.0 cm abdominal midline incision and subjected to a ligation of the distal half followed by one puncture with a G21 needle. A small amount of stool was expelled from the puncture to ensure patency. The cecum was replaced into the peritoneal cavity and the abdominal incision closed in two layers. After surgery, all mice were injected s.c. with 0.5 mL of 0.9% NaCl solution for fluid resuscitation. The animals were randomly grouped and treated LR17 or LR17-scrambled as control in 250 μL 0.9% NaCl solution and administered i.p. In order to determine the effect of various doses of LR17 at different times, mice were treated with 50, 100 or 200 μg of LR17 at H1 after surgery, or with 3 injections of 100 μg at 2, 6 and 24 hours or with 100 μg in one injection at 24 hours after CLP and then monitored for survival. Five additional animals per group were killed under anaesthesia at 24 h after CLP for the determination of bacterial count and cytokines levels. Peritoneal lavage fluid was obtained using 2 mL RPMI 1640 (EuroBio), and blood was collected by cardiac puncture. Concentrations of plasma cytokines were determined by ELISA (R&Dsystems). For the assessment of bacterial counts, blood and crushed spleen were plated in serial log dilutions on tryptic soy supplemented with 5% sheep blood agar plates. After plating, tryptic soy agar plates were incubated at 37° C. aerobically for 24 h and anaerobically for 48 h. Results are expressed as CFU per ml of blood or per gram of spleen.

[5] = test system: TREM-1; test: ROS production by neutrophils (DCFDA, flow cytometry); format: cell-based, human; details: peptide 30 μg/mL
Method: (D) ROS production: Flow cytometric quantification (DCFDA reduction) of neutrophils ROS production after 2 hours stimulation.
The quantitative determination of neutrophil phagocytosis and oxidative burst was performed by flow cytometry using the Phagotest and the Bursttest (Orpegen Pharma, Heidelberg, Germany) following the manufacturers' recommendations. A FITC-labelled opsonized E. coli was used to determine the general phagocytic activity (ingestion of one or more bacteria per cell) and the individual cellular phagocytic activity (number of bacteria per cell). For evaluation of oxidative burst activity, unlabeled opsonized E. coli, fMLP, PMA LPS and activated- or non-activated-platelets (30:1) were used as stimulants and DCFDA as a fluoregenic substrate (Invitrogen) accordingly with manufacturers' instructions.

[6] = LPS 0.1 μg/mL with or without αTREM-1

LQEEDAGEYGCMVDGAR (listed as Homo sapiens) [LR17]
CARD9-MALT1-BCL10 complex formation [1, 6]: decreased | CARD9-MALT1-BCL10 complex formation ([1]; αTREM-1 5 μg/mL, 20 minutes): reversed | binding to the TREM-1 ligand (TREM-1 agonist, anti-TREM-1 mAb) [2]: able to bind the TREM-1 ligand | TNF-α synthesis by silenced monocytes [3]: did not show any effect | plasma IL-6 and IL-10 concentrations ([4]; 100 μg i.p. 2 hours after surgery, 24 hours after surgery): decreased | repeated injections versus single dose administration ([4]; 3 injections of 100 μg at 2, 6 and 24 hours): not superior | protection against lethality (survival) ([4]; 50, 100 or 200 μg, also administered 24 h after onset of sepsis, survival over 1 wk, Log Rank test): dose-dependent significant protection | septicaemia (blood bacterial counts) ([4]; 24 hours): almost completely prevented septicaemia | IL-6 and IL-10 in broncho-alveolar lavage fluid and peritoneal lavage fluid ([4]; 24 hours after surgery): decreased | lung histological alterations ([4]; 24 hours after the CLP): attenuated | cell infiltration in peritoneum and alveolar space ([4]; mouse, in vivo): reduced | coagulation abnormalities (D-dimer and TATc plasma and alveolar concentrations) ([4]; mouse, in vivo): prevented | plasma levels of C5a, IL-1ra, IL16, MCP-1, MIP-la, MIP-2 (cytokine array) ([4]; mouse, in vivo): decreased concentration | intracellular ROS production [5, 6]: decreased | ROS production by neutrophils ([5]; TREM-1 agonist and platelets as inducers, 2 hours): partly prevented
